Source: patent US11932874B2, “Method for culturing mesenchymal stem cells using gamma-irradiated serum” (R Bio CO., Ltd., priority 2018, dated 2024)

Legend:
Assay type in all cases: cell-based
[1] = test system: human adipose tissue-derived stem cells; assay: Culture of stem cells using 25 kGy gamma-irradiated FBS with vitamin C pre- or post-treatment (Example 3): cell number, doubling time; settings: for Cell No. / Doubling time: Ad-MSC (P4), 4 days of culture
Experimental: After 4 days of culture, the cell proliferation rate and doubling time of the cells were examined. The viability of the cells was examined with a microscope and a hemocytometer, and the doubling time was calculated using the following equation: Doubling Time=duration×log(2)/log(final concentration)−log(initial concentration). [Equation 1] Fetal bovine serum (FBS) was irradiated with 25 kGy of gamma radiation, thereby preparing gamma-irradiated FBS. Vitamin C (ascorbic acid; L-Ascorbic Acid 2-phosphate) was added to the FBS which was then irradiated with 25 kGy of gamma irradiation, thereby preparing gamma-irradiated FBS pretreated with vitamin C. The vitamin C was added to the FBS at a concentration of 0.1% or 1%. Then, the human adipose tissue-derived stem cells at passage 3, isolated in Example 1, were thawed and inoculated into T75 flasks at a concentration of 0.5×10^6 cells/T75 flask, and the inoculated cells were cultured with AMSC+ culture medium (R-Bio Co., Ltd.) containing the prepared gamma-irradiated FBS or gamma-irradiated FBS pretreated with vitamin C at a concentration of 5% in a CO2 incubator at 37° C. for 2 days. After 2 days of culture, the medium was removed and replaced with AMSC+ culture medium containing 5% gamma-irradiated FBS (a negative control group), medium obtained by adding vitamin C to AMSC+ culture medium containing 5% gamma-irradiated FBS (a vitamin C post-treatment test group), or AMSC+ culture medium containing 5% gamma-irradiated FBS pretreated with vitamin C (a vitamin C pre-treatment test group). Vitamin C was added to the culture medium or FBS at a concentration of 0.1 or 1%. After 4 days of culture, the cell proliferation rate and doubling time of the cells were examined in the same manner as described in Example 2 above. A positive control group was also prepared as described in Example 2 above.

[2] = test system: human adipose tissue-derived stem cells; assay: Adhesion of stem cells cultured in 25 kGy gamma-irradiated FBS: time at which stem cell density reached 90% (Example 4); settings: 25 kGy FBS, passage 0 cells
Experimental: In the same manner as described in Example 3 above, fetal bovine serum (FBS) was irradiated with 25 kGy of gamma radiation, thereby preparing gamma-irradiated FBS. Vitamin C (ascorbic acid; L-Ascorbic Acid 2-phosphate) was added to the FBS which was then irradiated with 25 kGy of gamma irradiation, thereby preparing gamma-irradiated FBS pretreated with vitamin C. The vitamin C was added to the FBS at a concentration of 1%. Then, the human adipose tissue-derived stem cells at passage 0, isolated in Example 1, were thawed and inoculated into T25 flasks at a concentration of 1.7×10^3 cells/T25 flask, and the inoculated cells were cultured with AMSC+ culture medium (R-Bio Co., Ltd.) containing the prepared gamma-irradiated FBS or gamma-irradiated FBS pretreated with vitamin C at a concentration of 5% in a CO2 incubator at 37° C. for 2 days. After 2 days of culture, the medium was removed and replaced with AMSC+ culture medium containing 5% gamma-irradiated FBS (a negative control group), medium obtained by adding vitamin C to AMSC+ culture medium containing 5% gamma-irradiated FBS (a vitamin C post-treatment test group), or AMSC+ culture medium containing 5% gamma-irradiated FBS pretreated with vitamin C (a vitamin C pre-treatment test group). Vitamin C was added to the culture medium or FBS at a concentration of 1%. A positive control group was also prepared as described in Examples 2 and 3 above. For each control group and the test group, examination was performed of the time at which the density of the stem cells reached 90% so that these cells could be sub-cultured.

[3] = test system: human adipose tissue-derived stem cells; assay: Adhesion and proliferation rate of stem cells cultured in 30 kGy gamma-irradiated FBS over passages (Example 6); settings: 30 kGy FBS
Experimental: Fetal bovine serum (FBS) was irradiated with 30 kGy of gamma radiation, thereby preparing gamma-irradiated FBS. The gamma-irradiated FBS was added to AMSC+ culture medium (R-Bio Co., Ltd.) at a concentration of 5%, and 1% vitamin C was added to the culture medium, thereby preparing a medium (a vitamin C post-treatment group). Then, the human adipose tissue-derived stem cells at passage 1, isolated in Example 1, were thawed and inoculated into T25 flasks at a concentration of 0.7×10^3 cells/T25 flask, and the inoculated cells were cultured with AMSC+ culture medium (R-Bio Co., Ltd.) containing the prepared gamma-irradiated FBS at a concentration of 5% in a CO2 incubator at 37° C. for 2 days. After 2 days of culture, the medium was removed and replaced with AMSC+ culture medium containing 5% normal FBS (a positive control group), or medium obtained by adding vitamin C to AMSC+ culture medium containing 5% gamma-irradiated FBS (a vitamin C post-treatment test group). Vitamin C was added to the culture medium at a concentration of 1%. […] The stem cell adhesion shown in FIGS. 11A-11C was examined with a Leica microscope, and the cell number, cell size and viability shown in Tables 6 to 9 were examined with Luna™ Automated cell counter L10001 (Logos Biosystems).

[4] = 0.1% AA2P post-treatment + 25 KGy
[5] = 0.1% AA2P pre-treatment + 25 KGy
[6] = 1% AA2P post-treatment + 25 KGy
[7] = Stem cells #1 P1, 1% vitamin C post-treatment
[8] = Stem cells #1 P2, 1% vitamin C post-treatment
[9] = Stem cells #1 P3, 1% vitamin C post-treatment
[10] = Stem cells #1 P4, 1% vitamin C post-treatment
[11] = Stem cells #2 P1, 1% vitamin C post-treatment
[12] = Stem cells #2 P2, 1% vitamin C post-treatment
[13] = Stem cells #2 P3, 1% vitamin C post-treatment
[14] = Stem cells #2 P4, 1% vitamin C post-treatment
[15] = Stem cells #3 P1, 1% vitamin C post-treatment
[16] = Stem cells #3 P2, 1% vitamin C post-treatment
[17] = Stem cells #3 P3, 1% vitamin C post-treatment
[18] = Stem cells #3 P4, 1% vitamin C post-treatment

With `O=C1O[C@H]([C@@H](O)CO)C(O)=C1OP(=O)(O)O` [AA2P, L-Ascorbic Acid 2-phosphate] the “Cell No.” value [1, 4] was 10.6 ×10^6 cells, the Doubling time [1, 4] was 21 h and the “Cell No.” value [1, 5] was 10.2 ×10^6 cells. The Doubling time [1, 5] was 21 h, the “Cell No.” value [1, 6] was 14.0 ×10^6 cells and the Doubling time [1, 6] was 19 h. The “Cell No.” value ([1]; 1% AA2P pre-treatment + 25 KGy) was 10.0 ×10^6 cells, the Doubling time ([1]; 1% AA2P pre-treatment + 25 KGy) was 21 h and the “cell number and doubling time versus positive control group” value ([1]; vitamin C post-treatment and pre-treatment test groups, 25 kGy FBS, 4 days) was “increased to the levels of the positive control group”. For the same compound, the “microscope observation of stem cells” value ([1]; vitamin C post-treatment and pre-treatment test groups, 25 kGy FBS, day 4 (FIG. 3)) was “levels similar to those of the positive control group”, the “Density (90%): day of culture on which stem cell density reached 90%” value (“Density (90%): day of culture” below) ([2]; Post-treatment with 1% Vit. C) was “Day 10” and the “Density (90%): day of culture” value ([2]; Post-treatment with 1% Vit. C, listed as vitamin C) was 13 days. For the same compound, the “Density (90%): day of culture” value ([2]; Pre-treatment with 1% Vit. C) was “Day 13”, the “Density (90%): day of culture” value ([2]; Pre-treatment with 1% Vit. C, listed as vitamin C) was 10 days and the “adhesion, cell number, cell size and viability versus positive control group” value ([3]; 1% vitamin C post-treatment, stem cells at passages 2 to 4) was “did not differ from those of the positive control group”. The Cell number [3, 7] was 2.4 × 10^7 cells, the Cell size [3, 7] was 19.1 μm and the Viability [3, 7] was 84.4%. For the same compound, the Cell number [3, 8] was 1.6 × 10^7 cells, the Cell size [3, 8] was 19.5 μm and the Viability [3, 8] was 83%. For the same compound, the Cell number [3, 9] was 2.0 × 10^7 cells, the Cell size [3, 9] was 19.2 μm and the Viability [3, 9] was 88.7%. The Cell number [3, 10] was 3.3 × 10^8 cells, the Cell size [3, 10] was 20 μm and the Viability [3, 10] was 87.5%. The Cell number [3, 11] was 1.8 × 10^7 cells, the Cell size [3, 11] was 20 μm and the Viability [3, 11] was 89.6%. The Cell number [3, 12] was 1.8 × 10^7 cells, the Cell size [3, 12] was 19.3 μm and the Viability [3, 12] was 95.5%. For the same compound, the Cell number [3, 13] was 1.2 × 10^7 cells, the Cell size [3, 13] was 19.7 μm and the Viability [3, 13] was 88.9%. The Cell number [3, 14] was 1.5 × 10^8 cells, the Cell size [3, 14] was 18.8 μm and the Viability [3, 14] was 95.6%. The Cell number [3, 15] was 2.3 × 10^7 cells, the Cell size [3, 15] was 19.6 μm and the Viability [3, 15] was 87.1%. The Cell number [3, 16] was 1.4 × 10^7 cells, the Cell size [3, 16] was 18 μm and the Viability [3, 16] was 82%. The Cell number [3, 17] was 1.4 × 10^7 cells, the Cell size [3, 17] was 19.3 μm and the Viability [3, 17] was 88.2%. For the same compound, the Cell number [3, 18] was 2.1 × 10^8 cells, the Cell size [3, 18] was 17.8 μm and the Viability [3, 18] was 88.0%.
